Experimental data reported in patent publication US20230226074A1, “METHODS OF USE FOR PYRIMIDINES AS FERROPORTIN INHIBITORS” (Global Blood Therapeutics, Inc., priority 2020, published 2023).

Target: T1, human ferroportin (Homo sapiens, UniProt Q9NP59)
T1 construct: luciferase reporter (probably NanoLuc, inferred from the Nano-Glo Luciferase Assay System read-out); expressed in transfected cells; host or cells: CHO cells, stably transfected, expression induced with doxycycline
T1 sequence (Q9NP59 1-571): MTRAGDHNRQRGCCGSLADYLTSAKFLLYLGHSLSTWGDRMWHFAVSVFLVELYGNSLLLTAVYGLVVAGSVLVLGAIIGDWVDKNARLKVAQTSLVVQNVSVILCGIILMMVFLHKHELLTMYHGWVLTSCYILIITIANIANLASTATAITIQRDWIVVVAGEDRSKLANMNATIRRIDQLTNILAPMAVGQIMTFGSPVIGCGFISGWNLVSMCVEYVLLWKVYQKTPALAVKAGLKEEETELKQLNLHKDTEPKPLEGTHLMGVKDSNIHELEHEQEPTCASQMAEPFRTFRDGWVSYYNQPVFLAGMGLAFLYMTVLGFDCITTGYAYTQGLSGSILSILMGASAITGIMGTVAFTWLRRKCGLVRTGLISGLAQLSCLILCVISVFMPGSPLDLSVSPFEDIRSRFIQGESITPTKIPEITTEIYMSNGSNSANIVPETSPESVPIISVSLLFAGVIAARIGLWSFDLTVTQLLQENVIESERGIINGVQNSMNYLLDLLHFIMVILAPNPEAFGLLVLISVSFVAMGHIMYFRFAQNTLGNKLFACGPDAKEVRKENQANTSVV
Assay: In-vitro ferroportin internalization assay (luciferase reporter)
Format: cell-based
Conditions: average pEC50; stably-transfected CHO cell line expressing human ferroportin tagged to a luciferase reporter; 6 h incubation with test compound
Protocol: The protocol for this assay is generally as described in WO2018/128828, incorporated herein by reference in its entirety. Functional internalization of ferroportin protein was measured using a stably-transfected CHO cell line expressing the human ferroportin tagged to a luciferase reporter. Cells were plated for 24 h in the presence of ferric ammonium citrate (FAC). Ferroportin protein expression was induced with doxycycline for 24 h. The next day, the compounds were added. Test compounds were dissolved in DMSO. Cells were incubated with the test compounds for 6 h, and subsequently luciferase activity was measured using the Nano-Glo Luciferase Assay System and Glomax (Promega, Madison, Wis.). The average pEC50 was determined for the test compounds.

pEC50 | Structure (SMILES)
7.2 | COc1ccnc(-c2nc3c(c(N(C)CC(=O)N[C@H]4CCC[C@H]4O)n2)CCC3)c1 (single isomer, unassigned) [Compound 171]
6.8 | COc1ccnc(-c2nc3c(c(N(C)CC(=O)N[C@H]4CCC[C@@H]4O)n2)CCC3)c1 (single isomer, unassigned) [Compound 173]
7.2 | COc1ccc(NC(=O)C(C(C)C)N(C)c2nc(-c3ccccn3)nc3c2CCC3)cn1 (single isomer, unassigned) [Compound 316]
7.1 | CC(C)C(C(=O)Nc1cnn(C)c1)N(C)c1nc(-c2ccccn2)nc2c1CCC2 (single isomer, unassigned) [Compound 317]
7.2 | CC(C)[C@@H](C(=O)Nc1cnn(C)c1)N(C)c1nc(-c2ccccn2)nc2c1CCC2 (single isomer, unassigned) [Compound 318]
7.5 | CN(CC(=O)Nc1cccc(F)c1)c1nc(-c2ccccn2)nc2c1CCC2 [Compound 74, N-(3-fluorophenyl)-2-{methyl[2-(pyridin-2-yl)-5H,6H,7H-cyclopenta[d]pyrimidin-4-yl]amino}acetamide]
7.6 | COc1ccnc(-c2nc3c(c(N(C)CC(=O)NC(C)(C)CO)n2)CCC3)c1 [Compound 136, N-(1-hydroxy-2-methylpropan-2-yl)-2-{[2-(4-methoxypyridin-2-yl)-5H,6H,7H-cyclopenta[d]pyrimidin-4-yl](methyl)amino}acetamide]
<5.0 | CN(CC(=O)NC(C)(C)C)c1nc(-c2cccnn2)nc2c1CCC2 [Compound 175, N-tert-butyl-2-{methyl[2-(pyridazin-3-yl)-5H,6H,7H-cyclopenta[d]pyrimidin-4-yl]amino}acetamide]
6.9 | COCCN(C)c1nc(-c2ccccn2)nc2sc(C)c(C)c12 [Compound 179, N-(2-methoxyethyl)-N,5,6-trimethyl-2-(pyridin-2-yl)thieno[2,3-d]pyrimidin-4-amine]
6.1 | Cc1sc2nc(-c3ccccn3)nc(N(C)CCN3CCCC3=O)c2c1C [Compound 180, 1-(2-{[5,6-dimethyl-2-(pyridin-2-yl)thieno[2,3-d]pyrimidin-4-yl](methyl)amino}ethyl)pyrrolidin-2-one]
7.2 | COc1ccc(NC(=O)CN(C)c2nc(-c3ccccn3)nc3sc(C)c(C)c23)cc1 [Compound 181, 2-{[5,6-dimethyl-2-(pyridin-2-yl)thieno[2,3-d]pyrimidin-4-yl](methyl)amino}-N-(4-methoxyphenyl)acetamide]
7 | Cc1sc2nc(-c3ccccn3)nc(N(C)CC(=O)Nc3ccccc3)c2c1C [Compound 182, 2-{[5,6-dimethyl-2-(pyridin-2-yl)thieno[2,3-d]pyrimidin-4-yl](methyl)amino}-N-phenylacetamide]
7.1 | Cc1sc2nc(-c3ccccn3)nc(N(C)CC(=O)Nc3cccnc3)c2c1C [Compound 183, 2-{[5,6-dimethyl-2-(pyridin-2-yl)thieno[2,3-d]pyrimidin-4-yl](methyl)amino}-N-(pyridin-3-yl)acetamide]
6.9 | Cc1sc2nc(-c3ccccn3)nc(N(C)CC(=O)N(C)C)c2c1C [Compound 184, 2-{[5,6-dimethyl-2-(pyridin-2-yl)thieno[2,3-d]pyrimidin-4-yl](methyl)amino}-N,N-dimethylacetamide]
6.3 | CN(c1nc(-c2ccccn2)nc2c1CCC2)C1CCc2ccccc21 (stereo not drawn) [Compound 185, N-(2,3-dihydro-1H-inden-1-yl)-N-methyl-2-(pyridin-2-yl)-5H,6H,7H-cyclopenta[d]pyrimidin-4-amine]
5.3 | O=C(O)CCCCCNc1nc(-c2ccccn2)nc2c1CCC2 [Compound 186, 6-{[2-(pyridin-2-yl)-5H,6H,7H-cyclopenta[d]pyrimidin-4-yl]amino}hexanoic acid]
6.8 | c1ccc(-c2nc3c(c(N4CCCOC5CCCC54)n2)CCC3)nc1 (stereo not drawn) [Compound 187, 2-(4-{octahydro-2H-cyclopenta[b][1,4]oxazepin-5-yl]-5H,6H,7H-cyclopenta[d]pyrimidin-2-yl)pyridine]
5.7 | CC1CCN(c2nc(-c3ccccn3)nc3c2CCC3)C1 (stereo not drawn) [Compound 188, 2-[4-(3-methylpyrrolidin-1-yl)-5H,6H,7H-cyclopenta[d]pyrimidin-2-yl]pyridine]
6.7 | OCCC1CCCCCN1c1nc(-c2ccccn2)nc2c1CCC2 (stereo not drawn) [Compound 189, 2-{1-[2-(pyridin-2-yl)-5H,6H,7H-cyclopenta[d]pyrimidin-4-yl]azepan-2-yl}ethan-1-ol]
6.2 | O=C(NC1CCN(c2nc(-c3ccccn3)nc3scc(-c4ccccc4)c23)CC1)c1cccnc1 [Compound 191, N-{1-[5-phenyl-2-(pyridin-2-yl)thieno[2,3-d]pyrimidin-4-yl]piperidin-4-yl}pyridine-3-carboxamide]
5.9 | Cc1sc2nc(-c3ccccn3)nc(NCCCO)c2c1-c1ccccc1 [Compound 192, 3-{[6-methyl-5-phenyl-2-(pyridin-2-yl)thieno[2,3-d]pyrimidin-4-yl]amino}propan-1-ol]
6.4 | CCN(CCO)c1nc(-c2ccccn2)nc2scc(-c3ccccc3)c12 [Compound 193, 2-{ethyl[5-phenyl-2-(pyridin-2-yl)thieno[2,3-d]pyrimidin-4-yl]amino}ethan-1-ol]
6.3 | CCc1cc(N2Cc3ccccc3N(C)CC2C)nc(-c2ccccn2)n1 (stereo not drawn) [Compound 194, 4-[6-ethyl-2-(pyridin-2-yl)pyrimidin-4-yl]-1,3-dimethyl-2,3,4,5-tetrahydro-1H-1,4-benzodiazepine]
6.5 | Cc1cccc(C)c1NC(=O)CN(C)c1nc(-c2ccccn2)nc(C)c1C [Compound 195, 2-{[5,6-dimethyl-2-(pyridin-2-yl)pyrimidin-4-yl](methyl)amino}-N-(2,6-dimethylphenyl)acetamide]
6.7 | Cc1nc(-c2ccccn2)nc(N(C)CCN(C)c2ccccc2)c1C [Compound 196, N,5,6-trimethyl-N-{2-[methyl(phenyl)amino]ethyl}-2-(pyridin-2-yl)pyrimidin-4-amine]
6.3 | Cc1sc2nc(-c3ccccn3)nc(N(C)CC(C)O)c2c1-c1ccccc1 (stereo not drawn) [Compound 197, 1-{methyl[6-methyl-5-phenyl-2-(pyridin-2-yl)thieno[2,3-d]pyrimidin-4-yl]amino}propan-2-ol]
6 | CCC1COCCN1c1nc(-c2ccccn2)nc2scc(-c3ccccc3)c12 (stereo not drawn) [Compound 198, 3-ethyl-4-[5-phenyl-2-(pyridin-2-yl)thieno[2,3-d]pyrimidin-4-yl]morpholine]
5.8 | c1ccc(-c2csc3nc(-c4ccccn4)nc(N4CCN(CCN5CCCC5)CC4)c23)cc1 [Compound 199, 1-[5-phenyl-2-(pyridin-2-yl)thieno[2,3-d]pyrimidin-4-yl]-4-[2-(pyrrolidin-1-yl)ethyl]piperazine]
5.3 | CN1CCN(c2nc(-c3ccccn3)nc3sc(-c4ccccc4)cc23)CC1 [Compound 200, 1-methyl-4-[6-phenyl-2-(pyridin-2-yl)thieno[2,3-d]pyrimidin-4-yl]piperazine]
6 | CC(C#N)CN(C)c1nc(-c2ccccn2)nc2sc(-c3ccccc3)cc12 (stereo not drawn) [Compound 201, 2-methyl-3-{methyl[6-phenyl-2-(pyridin-2-yl)thieno[2,3-d]pyrimidin-4-yl]amino}propanenitrile]
